Test results published in patent publication US8202892B2, “Advanced glycation end products as active ingredients” (Henkel AG & Co. KGaA, priority 2007, dated 2012).

Tests used:
Format in all cases: cell-based
HGF = test: Relative gene expression in reconstructed dermal papillae: HGF; details: 24 hours, untreated medium = 1.00, 1.66 times or greater significant
Procedure: (§1) Reconstructed dermal papillae as described in European patent 1 455 854 were systemically treated for 24 hours with each of the test substances listed in Table 7 in the cited concentrations. The relative gene expression profile was determined for the markers HGF and KGF (important markers of the anagen phase of the hair cycle) and TGF-beta 1, TGF-beta 2 and IGFBP3 (important markers of the catagen phase of the hair cycle). Expression for incubation with the untreated medium served as the reference; values presented in the Table illustrate the differential gene expression. A differential gene expression that is 1.66 times or greater than the absolute numerical value of the control gene expression is regarded as significant.

TGF-beta 1 = test: Relative gene expression in reconstructed dermal papillae: TGF-beta 1; details: 24 hours, untreated medium = 1.00
Procedure: as §1

IGFBP3 = test: Relative gene expression in reconstructed dermal papillae: IGFBP3; details: 24 hours, untreated medium = 1.00
Procedure: as §1

TGF-beta 2 = test: Relative gene expression in reconstructed dermal papillae: TGF-beta 2; details: 24 hours, untreated medium = 1.00
Procedure: as §1

KGF = test: Relative gene expression in reconstructed dermal papillae: KGF; details: 24 hours, untreated medium = 1.00
Procedure: as §1

[1] = tested on: markers of anagen and catagen phase of the hair cycle; test: Relative gene expression profile of the markers of the hair cycle (statements in words); details: 0.1 wt. %
Procedure: as §1

IL-8 = test: Basal release of IL-8 from HaCaT keratinocytes, ELISA; details: 0.5%
Procedure: Measurement of the basal release of IL-8 provides information on the effects of substances on inflammation reactions. IL-8 is a pro-inflammatory cytokine, which plays a central role in the inflammation cascade of the skin. A reduction of the basal release of IL-8 points to potential inflammation inhibiting effects of the studied substances. In order to determine the release of the IL-8, HaCaT keratinocytes were incubated in Hanks medium with glutamax, 5% FCS and antibiotics in 24 well culture vessels. On day 2 after seeding, cells were incubated with the test substances in a concentration of 0.5%. After treatment for 15-20 h the cell culture supernatant was removed and the amount of released IL-8 was quantified by ELISA. The Quantikine IL-8 from RnD-Systems (Wiesbaden, Germany) was used for these analyses. Values illustrated in Table 5 are relative values with respect to the untreated controls from 4 independent experiments.

fibroblasts [2] = test: Relative vitality (cell activity) of cultivated fibroblasts, redox dye WST-1; details: untreated control = 100%
Procedure: Vitality of the cultivated cells was determined by means of redox dyes. These dyes penetrate into the cells and are reduced by electron capture at the external mitochondrial membrane. This reduction requires a color change that is subsequently photometrically analyzed. Vitality was quantified by setting the untreated control to 100% and the measured values of the samples treated with the substances were in reference to that figure. Cell damaging means a relative vitality of less than 80%, and cell activating means greater than or equal to 120%. Cell Proliferation Reagent Wst-1 (Roche Applied Science, Mannheim, Germany) was used for this test.

fibroblasts [3] = test: Proliferation of fibroblasts by CyQuant; details: for Proliferation MW: untreated control = 100%
Text: Determination of the proliferation of the cultivated cells provides information on the status of the cell division of the treated cells. Both cell division stimulating and cell division inhibiting substances can be defined with this analysis. An outstanding feature during the cell division is the duplication of the DNA. During the new synthesis, nucleotides are built into the newly formed DNA strand. The proliferation can be measured by offering a non-natural nucleotide derivative (bromo deoxy uridine, BrdU) to the cells for the new synthesis; the BrdU can be subsequently detected with specific antibodies. The amount of newly synthesized DNA can be quantified fluorimetrically and provides proportional information on the degree of the cell division process. Proliferation was determined by setting the untreated control to 100% and the measured values of the samples treated with the substances were in reference to that figure. For a relative proliferation of less than 80% the substance effect is said to be inhibitive, for greater than or equal to 120% the substance effect is considered to be stimulative. The CyQuant Assay Cell Proliferation Assay from Molecular Probes was used for this test according to manufacturer's directions.

[4] = tested on: organo-typical cell cultures (reconstructed dermal papillae); test: ATP production, ATPLite-M luciferase assay; details: dermal papillae cells
Procedure: ATP determinations were made using the ATPLite™-M Assays (from Packard). The test principle of this assay is based on the fact that the lucerifase from Photinus pyralis catalyzes a reaction in which, in the presence of ATP, D-luciferin is converted to oxyluciferin. Green light is emitted in this reaction and can be measured with an illuminometer. The emitted bioluminescence light is proportional to the amount of ATP present. Determination of ATP activity is carried out in organo-typical cell cultures (reconstructed dermal papillae according to EP 1 455 854). Treatment with the substance mixture is carried out for 24 hours against an untreated control. The cells were then lysed with 100 μl/cavity of a lyse buffer contained in a test kit for 5 minutes on a shaker. The cells were then incubated an additional 5 minutes with 100 μl/cavity of the supplied substrate solution on the shaker, and the reaction mixture was subsequently transferred into a black microtitre plate. Luminescence was measured after an incubation time of 10 minutes in the dark.

[5] = tested on: Hepatocyte Growth Factor (HGF); test: HGF release from reconstructed hair follicle models, ELISA
Text: (§2) Both the Hepatocyte Growth Factor (HGF) and Keratinocyte Growth Factor (KGF) are important regulators of the hair cycle. A change in the availability for the substances that regulate the hair cycle in comparison with the untreated controls should be assumed. The release of HGF and KGF can be quantified with the help of commercially available ELISA kits (Quantikine, RnD-Systems, Wiesbaden, Germany). For this, reconstructed hair follicle models, which are described in the European patent 1 455 854, were incubated with the test substances for 72 hours and the concentration of the growth factors in the medium was determined in the described manner. In order to be able to rule out that the described effects could have been caused by unreacted sugar (glucose or lactose), the respective individual components were tested at the highest possible concentration. The quantities of the untreated controls were set to 100% and the quantities of the treated samples were relative to these. The standard deviations were calculated from the three biological approaches.

[6] = tested on: Keratinocyte Growth Factor (KGF); test: KGF release from reconstructed hair follicle models, ELISA
Text: as §2

[7] = 0.40% w/v, 72 hours, untreated = 100%
[8] = reconstructed hair follicle model

Compound: N[C@@H](CCCCNCC(=O)O)C(=O)O [Carboxymethyllysine (13), N-ε-carboxymethyllysine]
- Differential gene expression HGF (Anagen) (HGF; 0.1% (wt. %)): −1.77
- Differential gene expression TGFβ1 (Catagen) (TGF-beta 1; 0.1% (wt. %)): 1.35
- Differential gene expression IGFBP3 (Catagen) (IGFBP3; 0.1% (wt. %)): 1.98
- Differential gene expression TGFβ2 (Catagen) (TGF-beta 2; 0.1% (wt. %)): −1.07
- Differential gene expression KGF (Anagen) (KGF; 0.1% (wt. %)): 1.24

Compound: Cc1c(O)c(=O)ccn1CCCC[C@H](N)C(=O)O [Maltosine (15), maltosine]
- Differential gene expression HGF (Anagen) (HGF; 0.1% (wt. %)): −2.09
- Gene expression of markers of catagen (in words) [1]: simultaneously increased gene expression of markers of catagen
- Differential gene expression TGFβ1 (Catagen) (TGF-beta 1; 0.1% (wt. %)): 3.39
- Differential gene expression IGFBP3 (Catagen) (IGFBP3; 0.1% (wt. %)): 7.55
- Differential gene expression TGFβ2 (Catagen) (TGF-beta 2; 0.1% (wt. %)): −2.24
- Differential gene expression KGF (Anagen) (KGF; 0.1% (wt. %)): −1.45

Compound: Cc1occc(=O)c1O [Maltol, 3-hydroxy-2-methyl-4H-pyran-4-one]
- Differential gene expression HGF (Anagen) (HGF; 0.01% (wt. %)): −1.23
- Differential gene expression HGF (Anagen) (HGF; 0.025% (wt. %)): 1.07
- Differential gene expression TGFβ1 (Catagen) (TGF-beta 1; 0.01% (wt. %)): −1.28
- Differential gene expression TGFβ1 (Catagen) (TGF-beta 1; 0.025% (wt. %)): −1.20
- Differential gene expression IGFBP3 (Catagen) (IGFBP3; 0.01% (wt. %)): −1.69
- Differential gene expression IGFBP3 (Catagen) (IGFBP3; 0.025% (wt. %)): −3.63
- Differential gene expression TGFβ2 (Catagen) (TGF-beta 2; 0.01% (wt. %)): −1.86
- Differential gene expression TGFβ2 (Catagen) (TGF-beta 2; 0.025% (wt. %)): −3.21
- Differential gene expression KGF (Anagen) (KGF; 0.01% (wt. %)): −1.87
- Differential gene expression KGF (Anagen) (KGF; 0.025% (wt. %)): −3.02

Compound: N[C@@H](CCCCNCC(=O)[C@@H](O)[C@H](O)[C@H](O)CO)C(=O)O [Fructoselysine (12), N-ε-fructosyllysine]
- Differential gene expression HGF (Anagen) (HGF; 0.01% (wt. %)): −1.92
- Differential gene expression HGF (Anagen) (HGF; 0.1% (wt. %)): −1.69
- Differential gene expression TGFβ1 (Catagen) (TGF-beta 1; 0.01% (wt. %)): 1.04
- Differential gene expression TGFβ1 (Catagen) (TGF-beta 1; 0.1% (wt. %)): −1.10
- Differential gene expression IGFBP3 (Catagen) (IGFBP3; 0.01% (wt. %)): −1.44
- Differential gene expression IGFBP3 (Catagen) (IGFBP3; 0.1% (wt. %)): −1.83
- Differential gene expression TGFβ2 (Catagen) (TGF-beta 2; 0.01% (wt. %)): −2.40
- Differential gene expression TGFβ2 (Catagen) (TGF-beta 2; 0.1% (wt. %)): −2.40
- Differential gene expression KGF (Anagen) (KGF; 0.01% (wt. %)): −1.96
- Differential gene expression KGF (Anagen) (KGF; 0.1% (wt. %)): −2.49

Compound: O=CC(=O)C[C@H](O)[C@H](O)CO [3-Desoxyglucosulose (18), 3-desoxyglucosulose]
- Differential gene expression HGF (Anagen) (HGF; 0.01% (wt. %)): −2.09
- Differential gene expression HGF (Anagen) (HGF; 0.1% (wt. %)): −1.78
- Differential gene expression TGFβ1 (Catagen) (TGF-beta 1; 0.01% (wt. %)): 1.02
- Differential gene expression TGFβ1 (Catagen) (TGF-beta 1; 0.1% (wt. %)): −1.27
- Differential gene expression IGFBP3 (Catagen) (IGFBP3; 0.01% (wt. %)): −1.20
- Differential gene expression IGFBP3 (Catagen) (IGFBP3; 0.1% (wt. %)): −2.12
- Differential gene expression TGFβ2 (Catagen) (TGF-beta 2; 0.01% (wt. %)): −1.67
- Differential gene expression TGFβ2 (Catagen) (TGF-beta 2; 0.1% (wt. %)): −1.54
- Differential gene expression KGF (Anagen) (KGF; 0.01% (wt. %)): −1.33
- Differential gene expression KGF (Anagen) (KGF; 0.1% (wt. %)): −1.93

Compound: OC[C@H]1O[C@@H](O[C@H]2[C@H](O)[C@@H](O)C(O)O[C@@H]2CO)[C@H](O)[C@@H](O)[C@H]1O (stereo partly drawn) [Lactose, D-(+)-lactose]
- Effect on basal release of IL-8 (in words) (IL-8): did not lead to a significant change
- Vitality MW (fibroblasts [2]; 250 μg/ml): 97.5%
- Vitality MW (fibroblasts [2]; 500 μg/ml): 98.6%
- Vitality MW (fibroblasts [2]; 1000 μg/ml): 102.0%
- Vitality MW (fibroblasts [2]; 2000 μg/ml): 116.4%
- Vitality MW (fibroblasts [2]; 4000 μg/ml): 119.8%
- Effect on cell division activity of fibroblasts (in words) (fibroblasts [3]): No effect could be detected
- Proliferation MW (fibroblasts [3]; 250 μg/ml): 107.2%
- Proliferation MW (fibroblasts [3]; 500 μg/ml): 90.4%
- Proliferation MW (fibroblasts [3]; 1000 μg/ml): 111.7%
- Proliferation MW (fibroblasts [3]; 2000 μg/ml): 107.6%
- Proliferation MW (fibroblasts [3]; 4000 μg/ml): 77.5%
- Effect on synthesis rate of ATP (in words) [4]: did not lead at any time and at any concentration to a change
- HGF release MW % [5, 7]: 65.3%
- Effect on release of HGF (in words) [5, 8]: reduced release of HGF
- KGF release MW % [6, 7]: 101.2%
- Effect on KGF release (in words) [6, 8]: distinct effect due to treatment with sugars (lactose and glucose) could not be established

Compound: CC1NC(NCCC[C@H](N)C(=O)O)=NC1=O (stereo partly drawn) [Ornithinoimidazolinone (16), ornithinoimidazolinone]
- Differential gene expression HGF (Anagen) (HGF; 0.1% (wt. %)): −3.30
- Differential gene expression TGFβ1 (Catagen) (TGF-beta 1; 0.1% (wt. %)): 1.08
- Differential gene expression IGFBP3 (Catagen) (IGFBP3; 0.1% (wt. %)): −1.60
- Differential gene expression TGFβ2 (Catagen) (TGF-beta 2; 0.1% (wt. %)): −1.66
- Differential gene expression KGF (Anagen) (KGF; 0.1% (wt. %)): −1.25
